Biological target: T1, cathepsin K (CTSK) (Homo sapiens, UniProt P43235)
T1 sequence (P43235 115-329): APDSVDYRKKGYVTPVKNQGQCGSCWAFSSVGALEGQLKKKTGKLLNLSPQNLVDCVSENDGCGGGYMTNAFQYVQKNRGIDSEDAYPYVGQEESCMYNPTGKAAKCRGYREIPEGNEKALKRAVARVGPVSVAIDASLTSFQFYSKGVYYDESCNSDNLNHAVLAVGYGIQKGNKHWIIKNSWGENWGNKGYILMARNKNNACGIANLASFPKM
Assay: In vitro CTSK activation of probes (UV-vis, fluorescence, PA)
Assay type: biochemical
Experimental: radiography (DR), and fluorescence imaging were carried out by using an IVIS Spectrum imaging system (PerkinElmer). Photoacoustic (PA) imaging was obtained on a multispectral optoacoustic tomography (MSOT) scanner (iThera Medical). Computed tomography (CT) imaging was recorded on single-photon emission computed tomography imaging system (Olympus). Magnetic resonance (MR) imaging was recorded on a preclinical magnetic resonance solution system (MR solutions).
In vitro analysis of cathepsin K (CTSK) activation, selectivity, and sensitivity studies.
Probe CTSK-APPA, D-CTSK-APPA, or CTSK-APP (10 μM) was incubated with CTSK in MES buffer (50 mM, pH 6.0) containing 0.1% DMSO, 2 mM ethylene diamine tetraacetic acid (EDTA), 4 mM dithiothreitol (DTT) and 0.15% chondroitin sulfate (CS) at 37 °C for 1 h. After incubation at the indicated time, UV-Vis spectra, fluorescence spectra, fluorescence images, and PA images of the solutions were recorded. Probe CyP (10 μM) incubated with CTSK (200 ng/mL) for 1 h was further analyzed by HPLC. For selectivity study, CTSK-APPA (10 μM) in a 96-well plate was incubated with CTSK (100 ng/mL), CTSB (100 ng/mL), FAP-α (9×10-4 U/mL), Caspase-3 (100 ng/mL), APN (100 ng/mL), GGT (0.1 U/mL), ALP (0.1 U/mL), ACE (1×10-3 U/mL), and trypsin (10 U/L) at […] for 1 h. […] The limit of detection was determined from emission intensities according to the equation: 3δ/k, where δ represents the standard deviation of blank, and k represents the slope of the fitting plot of emission intensities. Fluorescence images were captured by using the IVIS Spectrum imaging system with excitation at 660 ± 10 nm and emission at 710 ± 10 nm. […]
Kinetic assay. […] Fluorescence intensities of solution were measured for quantification analyses by a microplate reader (BioTek, Synergy 2) with excitation at 690 nm and emission at 720 nm. The kinetic parameters were calculated according to the Michaelis-Menten equation shown below: V = Vmax×[S]/(Km + [S]), where V is initial velocity, and [S] is substrate concentration. […]

Substance: Cbz‐Leu‐Arg‐OH [CTSK-APPA]
- incubation time until absorption at 690 nm and fluorescence at 720 nm reach plateau (incubation with CTSK): ≈ 60 min
- fluorescence on/off ratio at 720 nm (probe 10 μM + CTSK, MES buffer 50 mM pH 6.0, 0.1% DMSO, 37 °C, 1 h, Ex 690 nm, n = 3): ~20.9
- enhancement of photoacoustic signal (probe 10 μM + CTSK, MES buffer pH 6.0, 37 °C, 1 h, irradiated at 700 nm, n = 3): 5.2 fold
